According to patent US20120157453A1, “RAF INHIBITOR COMPOUNDS AND METHODS OF USE THEREOF” (GENENTECH, INC., priority 2009, published 2012):
Read-outs that look alike come from different tables or passages of the source.

Experiments:
[1] = tested on: basal ERK1/2 phosphorylation in Malme-3M cells; test: Cellular ERK 1/2 phosphorylation assay; assay type: cell-based; details: Homo sapiens, 1 h, pERK normalized to total ERK
Experimental: Inhibition of basal ERK1/2 phosphorylation was determined by the following in vitro […], which comprises incubating cells with a compound of Formula II for 1 hour and quantifying the fluorescent pERK signal on fixed cells and normalizing to total ERK signal.
Materials and Methods: Malme-3M cells were obtained from ATCC and grown in RPMI-1640 supplemented with 10% fetal bovine serum. Cells were plated in 96-well plates at 24,000 cells/well and allowed to attach for 16-20 hours at 37° C., 5% CO2. The media was removed, and DMSO-diluted compounds were added in RPMI-1640 at a final concentration of 1% DMSO. The cells were incubated with the compounds for 1 hour at 37° C., 5% CO2. The cells were washed with PBS and fixed in 3.7% formaldehyde in PBS for 15 minutes. This was followed by washing in PBS/0.05% Tween20 and permeabilizing in −20° C. 100% MeOH for 15 minutes. Cells were washed in PBS/0.05% Tween20 then blocked in Odyssey blocking buffer (LI-COR Biosciences) for 1 hour. Antibodies to phosphorylated ERK (1:400, Cell Signaling #9106, monoclonal) and total ERK (1:400, Santa Cruz Biotechnology #sc-94, polyclonal) were added to the cells and incubated 16-20 hours at 4° C. After washing with PBS/0.05% Tween20, the cells were incubated with fluorescently-labeled secondary antibodies (1:1000 goat anti-rabbit IgG-IRDye800, Rockland and 1:500 goat anti-mouse IgG-Alexa Fluor 680, Molecular Probes) for an additional hour. Cells were then washed and analyzed for fluorescence at both wavelengths using the Odyssey Infrared Imaging System (LI-COR Biosciences). Phosphorylated ERK signal was normalized to total ERK signal.

V600E full-length B-Raf = molecular target: T1, V600E full-length B-Raf (Homo sapiens, UniProt P15056, V600E); test: B-Raf IC50 assay (incorporation of 33P phosphate into FSBA-modified MEK); assay type: biochemical
T1 construct: 1 μM FSBA-MEK and 20 nM V600E full-length B-Raf; made in house; host or cells: Sf9 insect cells (baculovirus)
Description: Determining the activity of Raf in the sample is possible by a number of direct and indirect detection methods (US 2004/0082014). Activity of human recombinant B-Raf protein may be assessed in vitro by assay of the incorporation of radio labeled phosphate to recombinant MAP kinase (MEK), a known physiologic substrate of B-Raf, according to US 2004/0127496 and WO 03/022840. The activity/inhibition of V600E full-length B-Raf was estimated by measuring the incorporation of radio labeled phosphate from [γ-^33P]ATP into FSBA-modified wild-type MEK (see Example A).
Activity of human recombinant B-Raf protein may be assessed in vitro by assay of the incorporation of radio labeled phosphate to recombinant MAP kinase (MEK), a known physiologic substrate of B-Raf, according to US 2004/0127496 and WO 03/022840. Catalytically active human recombinant B-Raf protein is obtained by purification from sf9 insect cells infected with a human B-Raf recombinant baculovirus expression vector.
The activity/inhibition of V600E full-length B-Raf was estimated by measuring the incorporation of radio labeled phosphate from [γ-^33P]ATP into FSBA-modified wild-type MEK. The 30-μL assay mixtures contained 25 mM Na Pipes, pH 7.2, 100 mM KCl, 10 mM MgCl2, 5 mM β-glycerophosphate, 100 μM Na Vanadate, 4 μM ATP, 500 nCi [γ-^33P]ATP, 1 μM FSBA-MEK and 20 nM V600E full-length B-Raf. Incubations were carried out at 22° C. in a Costar 3365 plate (Corning). Prior to the assay, the B-Raf and FSBA-MEK were preincubated together in assay buffer at 1.5× (20 μL of 30 nM and 1.5 μM, respectively) for 15 minutes, and the assay was initiated by the addition of 10 μL of 10 μM ATP. Following the 60-minute incubation, the assay mixtures were quenched by the addition of 100 μL of 25% TCA, the plate was mixed on a rotary shaker for 1 minute, and the product was captured on a Perkin-Elmer GF/B filter plate using a Tomtec Mach III Harvester. After sealing the bottom of the plate, 35 μL of Bio-Safe II (Research Products International) scintillation cocktail were added to each well and the plate was top-sealed and counted in a Topcount NXT (Packard).

[2] = B-Raf V600E, bound less than 1 μM, read-out: IC50
[3] = Example A assay, 4 μM ATP, 20 nM enzyme, 60-minute incubation, read-out: BRAF V600E IC50

T1 sequence (P15056 whole entry V600E): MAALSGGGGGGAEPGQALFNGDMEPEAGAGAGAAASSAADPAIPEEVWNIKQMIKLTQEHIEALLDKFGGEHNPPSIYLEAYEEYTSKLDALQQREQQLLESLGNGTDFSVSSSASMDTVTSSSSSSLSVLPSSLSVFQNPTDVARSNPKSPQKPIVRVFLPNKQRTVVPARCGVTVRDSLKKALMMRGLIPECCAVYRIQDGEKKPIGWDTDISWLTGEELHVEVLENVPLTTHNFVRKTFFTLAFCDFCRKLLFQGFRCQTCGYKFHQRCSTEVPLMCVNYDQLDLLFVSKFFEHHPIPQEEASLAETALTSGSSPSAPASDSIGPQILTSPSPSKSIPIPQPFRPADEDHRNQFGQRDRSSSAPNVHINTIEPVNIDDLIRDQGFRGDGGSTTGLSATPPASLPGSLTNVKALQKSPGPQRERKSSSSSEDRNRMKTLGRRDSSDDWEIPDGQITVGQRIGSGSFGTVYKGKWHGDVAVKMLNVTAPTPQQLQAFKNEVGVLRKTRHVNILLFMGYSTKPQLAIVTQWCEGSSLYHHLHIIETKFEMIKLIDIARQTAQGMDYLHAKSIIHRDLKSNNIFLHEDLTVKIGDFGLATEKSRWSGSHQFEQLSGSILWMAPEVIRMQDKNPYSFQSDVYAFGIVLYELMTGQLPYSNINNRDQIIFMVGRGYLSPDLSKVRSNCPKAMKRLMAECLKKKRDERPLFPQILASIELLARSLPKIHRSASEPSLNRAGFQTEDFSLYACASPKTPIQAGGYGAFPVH

SMILES | IC50 (V600E full-length B-Raf; [2]) | IC50 (V600E full-length B-Raf; [3]) | IC50 ([1]; bound less than 500 nM) | IC50 ([1]; bound less than 1 μM) | IC50 [1] | IC50 (V600E full-length B-Raf)
CCCS(=O)(=O)Nc1ccc(F)c(NC(=O)N(C)c2ncnc3[nH]cnc23)c1F [Example 1, Propane-1-sulfonic acid {2,4-difluoro-3-[3-methyl-3-(9H-purin-6-yl)-ureido]-phenyl}-amide] | < 1000 nM | 23.9 nM | < 500 nM | < 1000 nM | – | –
CCCS(=O)(=O)Nc1ccc(F)c(NC(=O)Nc2ncnc3[nH]nc(OC)c23)c1Cl [Example 2, Propane-1-sulfonic acid {2-chloro-4-fluoro-3-[3-(3-methoxy-1H-pyrazolo[3,4-d]pyrimidin-4-yl)-ureido]-phenyl}-amide] | < 1000 nM | 1.3 nM | < 500 nM | < 1000 nM | – | –
CCS(=O)(=O)Nc1ccc(F)c(NC(=O)Nc2ncnc3[nH]nc(OC)c23)c1F [Example 3, Ethanesulfonic acid {2,4-difluoro-3-[3-(3-methoxy-1H-pyrazolo[3,4-d]pyrimidin-4-yl)-ureido]-phenyl}-amide] | < 1000 nM | 3.4 nM | < 500 nM | < 1000 nM | 13.5 nM | –
CCS(=O)(=O)Nc1ccc(Cl)c(NC(=O)Nc2ncnc3[nH]nc(OC)c23)c1F [Example 4, Ethanesulfonic acid {4-chloro-2-fluoro-3-[3-(3-methoxy-1H-pyrazolo[3,4-d]pyrimidin-4-yl)-ureido]-phenyl}-amide] | < 1000 nM | 1.9 nM | < 500 nM | < 1000 nM | – | –
CCS(=O)(=O)Nc1ccc(F)c(NC(=O)Nc2ncnc3[nH]nc(OC)c23)c1Cl [Example 5, Ethanesulfonic acid {2-chloro-4-fluoro-3-[3-(3-methoxy-1H-pyrazolo[3,4-d]pyrimidin-4-yl)-ureido]-phenyl}-amide] | < 1000 nM | 3.9 nM | < 500 nM | < 1000 nM | 47.9 nM | –
CCCS(=O)(=O)Nc1ccc(F)c(NC(=O)N(C)c2ncnc3[nH]ccc23)c1F [Example 6, Propane-1-sulfonic acid {2,4-difluoro-3-[3-methyl-3-(7H-pyrrolo[2,3-d]pyrimidin-4-yl)-ureido]-phenyl}-amide] | < 1000 nM | 57 nM | – | – | – | –
CCCS(=O)(=O)Nc1ccc(F)c(NC(=O)Nc2ncnc3[nH]nc(I)c23)c1F [Example 7, Propane-1-sulfonic acid {2,4-difluoro-3-[3-(3-iodo-1H-pyrazolo[3,4-d]pyrimidin-4-yl)-ureido]-phenyl}-amide] | < 1000 nM | 3.8 nM | – | < 1000 nM | – | –
CCCS(=O)(=O)Nc1ccc(F)c(NC(=O)Nc2ncnc3[nH]nc(OC)c23)c1OC [Example 8, Propane-1-sulfonic acid {4-fluoro-2-methoxy-3-[3-(3-methoxy-1H-pyrazolo[3,4-d]pyrimidin-4-yl)-ureido]-phenyl}-amide] | < 1000 nM | 192 nM | – | < 1000 nM | – | –
CCCS(=O)(=O)Nc1ccc(F)c(NC(=O)Nc2ncnc3[nH]ncc23)c1F [Example 11, Propane-1-sulfonic acid {2,4-difluoro-3-[3-(1H-pyrazolo[3,4-d]pyrimidin-4-yl)-ureido]-phenyl}-amide] | < 1000 nM | – | < 500 nM | < 1000 nM | – | 5.5 nM

Now from value to molecule, other results behind:

IC50 (V600E full-length B-Raf; [2]) | IC50 (V600E full-length B-Raf; [3]) | SMILES | IC50 ([1]; bound less than 500 nM) | IC50 ([1]; bound less than 1 μM) | IC50 [1] | IC50 (V600E full-length B-Raf)
< 1000 nM | 0.9 nM | CCCS(=O)(=O)Nc1ccc(F)c(NC(=O)Nc2ncnc3[nH]nc(OCC)c23)c1F [Example 9, N-(3-(3-(3-Ethoxy-1H-pyrazolo[3,4-d]pyrimidin-4-yl)ureido)-2,4-difluorophenyl)propane-1-sulfonamide] | < 500 nM | < 1000 nM | – | –
< 1000 nM | 1.4 nM | CCCS(=O)(=O)Nc1ccc(F)c(NC(=O)Nc2ncnc3[nH]nc(OC)c23)c1F [Example 10, Propane-1-sulfonic acid {2,4-difluoro-3-[3-(3-methoxy-1H-pyrazolo[3,4-d]pyrimidin-4-yl)-ureido]-phenyl}-amide] | < 500 nM | < 1000 nM | – | –
< 1000 nM | 56.2 nM | CCCS(=O)(=O)Nc1ccc(F)c(NC(=O)Nc2ncnc3[nH]ccc23)c1F [Example 12, Propane-1-sulfonic acid {2,4-difluoro-3-[3-(7H-pyrrolo[2,3-d]pyrimidin-4-yl)-ureido]-phenyl}-amide] | < 500 nM | < 1000 nM | – | –
< 1000 nM | 4.7 nM | CCCS(=O)(=O)Nc1ccc(F)c(NC(=O)Nc2ncnc3[nH]cnc23)c1F [Example 13, Propane-1-sulfonic acid {2,4-difluoro-3-[3-(9H-purin-6-yl)-ureido]-phenyl}-amide] | < 500 nM | < 1000 nM | – | –
– | 1960 nM | CCCS(=O)(=O)Nc1ccc(F)c(NC(=O)Nc2ncnc3[nH]nnc23)c1F [Example 14, Propane-1-sulfonic acid {2,4-difluoro-3-[3-(3H-[1,2,3]triazolo[4,5-d]pyrimidin-7-yl)-ureido]-phenyl}-amide] | – | – | – | –
< 1000 nM | 428 nM | CCCS(=O)(=O)Nc1ccc(F)c(NC(=O)Nc2ncnc3[nH]nc(OCCCO)c23)c1F [Example 15, Propane-1-sulfonic acid {2,4-difluoro-3-{3-[3-(3-hydroxy-propoxy)-1H-pyrazolo[3,4-d]pyrimidin-4-yl]-ureido}-phenyl)-amide] | – | – | – | –
< 1000 nM | 0.6 nM | CCCS(=O)(=O)Nc1ccc(Cl)c(NC(=O)Nc2ncnc3[nH]nc(OC)c23)c1F [Example 16, Propane-1-sulfonic acid {4-chloro-2-fluoro-3-[3-(3-methoxy-1H-pyrazolo[3,4-d]pyrimidin-4-yl)-ureido]-phenyl}-amide] | < 500 nM | < 1000 nM | – | –
< 1000 nM | 97.9 nM | CCCS(=O)(=O)Nc1ccc(F)c(NC(=O)Nc2ncnc3sccc23)c1F [Example 17, Propane-1-sulfonic acid [2,4-difluoro-3-(3-thieno[2,3-d]pyrimidin-4-yl-ureido)-phenyl]-amide] | < 500 nM | < 1000 nM | – | –
< 1000 nM | 431 nM | CCCS(=O)(=O)Nc1ccc(F)c(NC(=O)Nc2ncnc3oc(C)c(C)c23)c1F [Example 18, Propane-1-sulfonic acid {3-[3-(5,6-dimethyl-furo[2,3-d]pyrimidin-4-yl)-ureido]-2,4-difluoro-phenyl}-amide] | – | – | – | –
< 1000 nM | 25.2 nM | CCCS(=O)(=O)Nc1ccc(F)c(NC(=O)Nc2ncnc3sc4c(c23)CCC4)c1F [Example 19, Propane-1-sulfonic acid {3-[3-(6,7-dihydro-5H-cyclopenta[4,5]thieno[2,3-d]pyrimidin-4-yl)-ureido]-2,4-difluoro-phenyl}-amide] | < 500 nM | < 1000 nM | 176 nM | –
< 1000 nM | 29.2 nM | CCCS(=O)(=O)Nc1ccc(F)c(NC(=O)Nc2ncnc3[nH]c(=S)[nH]c23)c1F [Example 23, Propane-1-sulfonic acid {2,4-difluoro-3-[3-(8-thioxo-8,9-dihydro-7H-purin-6-yl)-ureido]-phenyl}-amide] | – | – | – | –
